Where “and” joins values, the source holds several entries; their conditions need not be identical. Equal values may be shown once.
Experiments:
Assay in all cases: Broth microdilution MIC, Example 7 (NCL812 and analogues)
MRSA = assay type: cell-based, Staphylococcus aureus; conditions: 24 hours, duplicate lines per compound
Method in brief: (§1)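 Turbidity read visually and then at 600 nm defined the MIC (μg/ml), comparing drug-containing wells with a growth-control well lacking antimicrobial. Testing followed the CLSI broth microdilution method, in duplicate, using two strains per organism group.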

VRE = assay type: cell-based, Enterococcus spp.; conditions: 24 hours, duplicate lines per compound
Method in brief: as §1

Escherichia coli = assay type: cell-based; conditions: E. coli; 24 hours; duplicate lines per compound
Pseudomonas aeruginosa = assay type: cell-based; conditions: P. aeruginosa; 24 hours; duplicate lines per compound

MIC (μg/ml) at 24 hours, MRSA 1 (MRSA) [µg/mL] | MIC (μg/ml) at 24 hours, MRSA 2 (MRSA) | MIC (μg/ml) at 24 hours, VRE 1 (VRE) [µg/mL] | MIC (μg/ml) at 24 hours, VRE 2 (VRE) | MIC (μg/ml) at 24 hours, E. coli (Escherichia coli) [µg/mL] | MIC (μg/ml) at 24 hours, P. aeruginosa (Pseudomonas aeruginosa) [µg/mL] | SMILES
>128 | >128 µg/mL | >128 | >128 µg/mL | >128 | >128 | Cl.N=C(NN=CC1=C(Cl)c2cc(F)ccc2OC1)NN=CC1=C(Cl)c2cc(F)ccc2OC1 [NCL 132]
>128 | >128 µg/mL | >128 | >128 µg/mL | >128 | >128 | Cl.N=C(NN=Cc1cc(Br)co1)NN=Cc1cc(Br)co1 [NCL 133]
>128 | >128 µg/mL | >128 | >128 µg/mL | >128 | >128 | Cl.N=C(N/N=C/c1ccc(Br)cc1)N/N=C/c1ccc(Br)cc1 [NCL 134]
>128 | >128 µg/mL | >128 | >128 µg/mL | >128 | >128 | COc1cc(Br)c(C=NNC(=N)NN=Cc2cc(OC)c(OC)cc2Br)cc1OC.Cl [NCL 135]
64 | 128 µg/mL | 32 | 128 µg/mL | >128 | >128 | CCCCc1ccc(C=NNC(=N)NN=Cc2ccc(CCCC)cc2)cc1.Cl [NCL 136]
>128 | >128 µg/mL | >128 | >128 µg/mL | >128 | >128 | Cl.N=C(NN=Cc1c(Cl)cccc1Cl)NN=Cc1c(Cl)cccc1Cl [NCL 137]
>128 | 32 µg/mL | >128 | >128 µg/mL | >128 | >128 | Cl.N=C(NN=CC(=Cc1ccccc1)c1ccccc1)NN=CC(=Cc1ccccc1)c1ccccc1 [NCL 138]
>128 | >128 µg/mL | >128 | >128 µg/mL | >128 | >128 | Cl.N=C(NN=Cc1cnc2ccccc2c1)NN=Cc1cnc2ccccc2c1 [NCL 139]
– | 16 µg/mL and 32 µg/mL | – | 8 µg/mL and 16 µg/mL | >128 | >128 | CSc1ccc(C=NNC(=N)NN=Cc2ccc(SC)cc2)cc1.Cl [NCL 140]
>128 | >128 µg/mL | 16 | >128 µg/mL | >128 | >128 | Cl.N=C(NN=Cc1csc2ccc(Cl)cc12)NN=Cc1csc2ccc(Cl)cc12 [NCL 141]
>128 | >128 µg/mL | >128 | >128 µg/mL | >128 | >128 | Cl.N=C(NNCc1ccccc1)NNCc1ccccc1 [NCL 142]
16 | 16 µg/mL | 8 | 8 µg/mL | >128 | >128 | CC(=NNC(=N)NN=C(C)c1ccccc1)c1ccccc1.Cl [NCL 143]
>128 | >128 µg/mL | >128 | >128 µg/mL | >128 | >128 | Cl.N=C(NN=Cc1ccc(Br)o1)NN=Cc1ccc(Br)o1 [NCL 144]
>128 | >128 µg/mL | >128 | >128 µg/mL | >128 | >128 | Cl.N=C(NN=Cc1ccc(Cl)o1)NN=Cc1ccc(Cl)o1 [NCL 145]
8 | 16 µg/mL | 16 | 16 µg/mL | >128 | >128 | Cl.N=C(NN=Cc1ccc2[nH]ccc2c1)NN=Cc1ccc2[nH]ccc2c1 [NCL 146]
>128 | >128 µg/mL | >128 | >128 µg/mL | >128 | >128 | Cl.N=C(NN=Cc1cnc2ccccc2n1)NN=Cc1cnc2ccccc2n1 [NCL 147]
>128 | >128 µg/mL | >128 | >128 µg/mL | >128 | >128 | Cl.N=C(NN=Cc1ccc(C=CCC(=O)O)cc1)NN=Cc1ccc(C=CCC(=O)O)cc1 [NCL 148]
>128 | >128 µg/mL | >128 | >128 µg/mL | >128 | >128 | Cl.N=C(N/N=C/c1ccncc1)N/N=C/c1ccncc1 [NCL 149]
128 | 128 µg/mL | >128 | >128 µg/mL | >128 | >128 | COc1ccc(C=CC=NNC(=N)NN=CC=Cc2ccc(OC)cc2)cc1.Cl [NCL 150]
64 | 64 µg/mL | 128 | 64 µg/mL | >128 | >128 | Cl.N=C(NN=Cc1ccc(O)cc1)NN=Cc1ccc(O)cc1 [NCL 151]
>128 | >128 µg/mL | >128 | >128 µg/mL | >128 | >128 | Cc1cccc(C=NNC(=N)NN=Cc2cccc(C)c2O)c1O.Cl [NCL 152]
32 | 16 µg/mL | 8 | 8 µg/mL | >128 | >128 | CCC(=NNC(=N)NN=C(CC)c1ccc(Cl)cc1)c1ccc(Cl)cc1.Cl [NCL 153]
>128 | >128 µg/mL | >128 | >128 µg/mL | >128 | >128 | CCCCC(=NNC(=N)NN=C(CCCC)c1ccc(Cl)cc1)c1ccc(Cl)cc1.Cl [NCL 154]
8 | 8 µg/mL | 16 | 8 µg/mL | >128 | >128 | C/C(=N\NC(=N)N/N=C(\C)c1ccc(Br)cc1)c1ccc(Br)cc1.Cl [NCL 155]
>128 | >128 µg/mL | >128 | >128 µg/mL | >128 | >128 | CCCC(=NNC(=N)NN=C(CCC)c1ccc(Cl)cc1)c1ccc(Cl)cc1.Cl [NCL 156]
2 | 2 µg/mL | 2 | 2 µg/mL and 4 µg/mL | >128 | >128 | Cl.N=C(NN=Cc1ccc(Cl)cc1N)NN=Cc1ccc(Cl)cc1N [NCL 157]
4 | 4 µg/mL | 4 | 4 µg/mL | >128 | >128 | CCC(=NNC(=N)NN=C(CC)c1ccc(Cl)cc1O)c1ccc(Cl)cc1O.Cl [NCL 158]
64 | 128 µg/mL | 16 | 128 µg/mL | >128 | >128 | Cl.N=C(NN=C(c1ccc(Cl)cc1O)C1CCCC1)NN=C(c1ccc(Cl)cc1O)C1CCCC1 [NCL 159]

Source: patent publication US10253002B2, “Compounds and methods of treating infections” (Neoculi Pty Ltd., priority 2013, dated 2019)
